{"source": "paper PMC8910920", "about": "(International Journal of Molecular Sciences, 2022)", "key": {"[1]": {"system": "OXA-induced cold hypersensitivity in male mice", "experiment": "Oxaliplatin-induced peripheral neuropathy, acetone drop test", "assay_type": "in vivo, mouse", "description": "For the OXA-induced peripheral neuropathy assay, OXA was […] injected on days 1, 3 and 5 to male mice, at a 6 mg/kg dose, to induce hypersensitivity to cold, as monitored by the acetone drop test (Figure 6).\nFor the experiments, 6–8 weeks C57 male mice (≈30g) (Harlam, Holland) were used. All experiments were approved by the Institutional Animal and Ethical Committee of the Universidad Miguel Hernandez and Comunidad Valencian ethical committees (2021/VSC/PEA/0089) where experiments were conducted and they were in accordance with the guidelines of the Economic European Community and the Committee for Research and Ethical Issues of the International Association for the Study of Pain. All parts of the study concerning animal care were performed under the control of veterinarians. Experiments were performed blinded for NTG and compound treatment.\nOxaliplatin (OXA, Tocris, Bristol, UK) was used to induce peripheral neuropathy and was dissolved in water with gentle warming as formerly described. OXA was intraperitoneally injected on days 1, 3 and 5 at a 6 mg/kg dose. […] Cold chemical sensitivity was assessed using the acetone drop test. […] Positive nociceptive responses (licking time in seconds) were recorded with a digital stopwatch during 20 s (cut-off). Acetone was applied twice in an interval of 5 min between each application and the mean was calculated."}, "[2]": {"system": "CCI rats, heat hypersensitivity", "experiment": "CCI model of neuropathic pain, heat sensitivity (Hargreaves test)", "assay_type": "in vivo, rat", "description": "(§1) The CCI model of neuropathic pain allowed the evaluation of the effect RGM8-51 on cold, heat and mechanical sensitivity, as assayed by the acetone test, the Hargreaves test, and the automatized von Frey test, respectively. RGM8-51 was applied either locally (i.pl.; 10 µg) in the affected paw or systemically (intraperitoneally, i.p., 10 and 30 mg/kg) and the effect evaluated before (Baseline) and after CCI surgery. The nocifensive response after administration of RGM8-51 was compared with that of vehicle, while non-operated animals and the uninjured (contralateral) hind paw in CCI animals were used as controls.\n(§2) Adult male Sprague-Dawley rats (weighing 200–220 g/6–8 weeks old) were used in these experiments. All experimental procedures were conducted according to the animal welfare guidelines of the European Community (European Directive 2010/63/UE) to minimize animal suffering and were approved by Universidad Complutense de Madrid and Comunidad de Madrid ethical committees on animal experimentation (PROEX 207.8/21). […]\n(§3) For behavioral testing, rats were placed in individual methacrylate boxes with a wire mesh floor, and after a period of 15 min acclimatization, the cold, heat and mechanical sensitivity of the ipsilateral and contralateral paws was determined. Cold sensitivity was assessed with the acetone test. In total, 100 µL acetone were locally applied to the plantar surface of the hind paw and the duration of the subsequent nocifensive response (licking, brushing, and flinching of the paw) was determined during 60 s. Acetone application and assessment were repeated 2 times with a 5 min interval and the sum of the two values was recorded. Heat sensitivity was determined with the Hargreaves test, which uses infrared light as a heat source, with a Hargreaves apparatus (Serie 8, Model 336, IITC Life Science, Woodland Hills, CA USA). The light beam was directed to the plantar surface of the hind paw and the time from the beginning of irradiation to the appearance of first paw withdrawal movement was measured (paw withdrawal latency). […]"}, "[3]": {"system": "CCI rats, mechanical hypersensitivity", "experiment": "CCI model of neuropathic pain, mechanical sensitivity (automatized von Frey test)", "assay_type": "in vivo, rat", "description": "as §1, §2, §3"}}, "data": [{"smiles": "C[C@@H]1C(=O)N(C[C@H](Cc2ccccc2)N(Cc2ccccc2)Cc2ccccc2)[C@]1(Cc1ccccc1)C(=O)OC(C)(C)C", "note": "[RGM8-51, 4(S)-Benzyl-3S-methyl-4-(tert-butoxy)carbonyl-1-[(2′S-dibenzylamino-3′-phenyl)prop-1′-yl]-2-oxoazetidine]", "values": [{"measurement": "OXA-induced cold hypersensitivity (cold-induced paw licking)", "setting": "[1]; 0.1 µg i.pl., sustained activity from 15 to 30 min", "result": "still highly active"}, {"measurement": "OXA-induced cold hypersensitivity (cold-induced paw licking)", "setting": "[1]; 1 μg i.pl., significant at 15 min, peak effect from 30 to 60 min", "result": "attenuates the cold-induced paw licking in a significant manner"}, {"measurement": "heat hypersensitivity in CCI rats", "setting": "[2]; i.p. 10 and 30 mg/kg, dose-dependently", "result": "effective in decreasing hypersensitivity to heat"}, {"measurement": "heat hypersensitivity in CCI rats", "setting": "[2]; i.pl. 10 µg", "result": "did not influence the animal response to heat"}, {"measurement": "heat perception in non-operated animals (baseline) or uninjured hind paw", "setting": "[2]; rat, in vivo", "result": "had no effect on heat perception"}, {"measurement": "mechanical sensitivity in the absence of neuropathy", "setting": "[3]; baseline, non-operated", "result": "could not be observed"}, {"measurement": "mechanical hypersensitivity (paw withdrawal threshold) in CCI rats", "setting": "[3]; i.p. 10 and 30 mg/kg", "result": "dose-dependently reverted paw withdrawal thresholds"}, {"measurement": "mechanical hypersensitivity (paw withdrawal threshold) in CCI rats", "setting": "[3]; local (i.pl.) 10 µg", "result": "effect also being produced"}]}]}
